According to patent US20100280082A1, “Metabotropic Glutamate Receptor Oxadiazole Ligands and Their Use as Potentiators” (AstraZeneca AB, priority 2007, published 2010):

What follows are compounds tested against hERG ion channel (Homo sapiens, UniProt Q12809) (assay: hERG activity (process of Bridgland-Taylor et al.)).
Format: cell-based
Procedure: hERG activity was assessed using the process described by Bridgland-Taylor, M. H., et al, J. Pharm. Tox. Methods 54 (2006) 189-199.

hERG ion channel, sequence (Q12809 whole entry): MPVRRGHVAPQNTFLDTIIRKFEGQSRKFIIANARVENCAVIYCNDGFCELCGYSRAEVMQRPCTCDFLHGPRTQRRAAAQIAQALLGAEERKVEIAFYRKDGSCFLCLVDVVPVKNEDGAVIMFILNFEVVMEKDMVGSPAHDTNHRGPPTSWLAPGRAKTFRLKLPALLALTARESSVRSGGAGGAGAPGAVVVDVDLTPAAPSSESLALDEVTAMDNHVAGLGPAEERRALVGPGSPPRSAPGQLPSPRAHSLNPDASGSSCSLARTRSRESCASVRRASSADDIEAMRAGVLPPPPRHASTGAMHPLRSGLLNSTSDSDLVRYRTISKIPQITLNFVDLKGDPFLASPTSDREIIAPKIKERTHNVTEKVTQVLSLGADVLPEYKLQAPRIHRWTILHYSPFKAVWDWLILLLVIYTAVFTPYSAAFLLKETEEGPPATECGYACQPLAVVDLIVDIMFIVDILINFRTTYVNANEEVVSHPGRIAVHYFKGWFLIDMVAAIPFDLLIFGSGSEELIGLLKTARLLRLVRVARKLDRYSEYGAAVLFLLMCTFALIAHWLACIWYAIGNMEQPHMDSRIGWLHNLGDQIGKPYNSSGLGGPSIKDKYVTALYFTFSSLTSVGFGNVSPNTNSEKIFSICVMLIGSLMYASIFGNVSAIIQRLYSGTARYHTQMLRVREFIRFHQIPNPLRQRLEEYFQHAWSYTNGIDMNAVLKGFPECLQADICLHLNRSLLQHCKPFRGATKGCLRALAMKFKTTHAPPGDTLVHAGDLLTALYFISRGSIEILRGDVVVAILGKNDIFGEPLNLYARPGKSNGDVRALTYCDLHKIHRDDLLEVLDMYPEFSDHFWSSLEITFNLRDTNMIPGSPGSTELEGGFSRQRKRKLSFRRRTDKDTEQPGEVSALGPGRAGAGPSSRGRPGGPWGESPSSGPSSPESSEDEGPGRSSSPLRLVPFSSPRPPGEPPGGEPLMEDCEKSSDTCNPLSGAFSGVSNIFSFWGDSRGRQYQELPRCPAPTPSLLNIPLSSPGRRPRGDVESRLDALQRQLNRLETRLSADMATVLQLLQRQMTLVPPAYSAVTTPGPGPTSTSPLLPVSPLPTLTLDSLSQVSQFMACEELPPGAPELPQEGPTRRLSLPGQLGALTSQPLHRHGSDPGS

SMILES | hERG [µM]
O=C1c2c(Cl)cc(-c3noc(CN4CCNCC4)n3)cc2CN1Cc1ccc(OC(F)(F)F)cc1 [Example 1, 7-Chloro-5-(5-piperazin-1-ylmethyl-[1,2,4]oxadiazol-3-yl)-2-(4-trifluoromethoxybenzyl)-2,3-dihydroisoindol-1-one] | 10
O=C1c2c(Cl)cc(-c3noc(CN4CCNCC4)n3)cc2CN1Cc1ccc(Cl)cc1 [Example 2, 7-chloro-2-(4-chlorobenzyl)-5-(5-piperazin-1-ylmethyl-[1,2,4]oxadiazol-3-yl)-2,3-dihydroisoindol-1-one] | 14
Cc1cc(-c2noc(CN3CCNCC3)n2)cc2c1C(=O)N(Cc1ccc(OC(F)(F)F)cc1)C2 [Example 3, 7-methyl-5-(5-piperazin-1-ylmethyl-[1,2,4]oxadiazol-3-yl)-2-(4-trifluoromethoxy-benzyl)-2,3-dihydroisoindol-1-one] | 13
Cc1cc(-c2noc(CN3CCNCC3)n2)cc2c1C(=O)N(Cc1ccc(Cl)cc1)C2 [Example 4, 2-(4-chlorobenzyl)-7-methyl-5-(5-piperazin-1-ylmethyl-[1,2,4]oxadiazol-3-yl)-2,3-dihydroisoindol-1-one] | 8.9
Cc1cc(-c2noc(CN3C[C@@H]4C[C@H]3CN4)n2)cc2c1C(=O)N(Cc1ccc(OC(F)(F)F)cc1)C2 [Example 5, 5-[5-(2,5-diaza-bicyclo[2.2.1]hept-2-ylmethyl)-[1,2,4]oxadiazol-3-yl]-7-methyl-2-(4-trifluoromethoxybenzyl)-2,3-dihydroisoindol-1-one] | 17
Cc1cc(-c2noc(CN3CCNCC3)n2)cc2c1C(=O)N([C@@H](C)c1ccc(Cl)cc1)C2 [Example 6, 2-[(S)-1-(4-Chloro-phenyl)-ethyl]-7-methyl-5-(5-piperazin-1-ylmethyl-[1,2,4]oxadiazol-3-yl)-2,3-dihydro-isoindol-1-one] | 14
Cc1cc(-c2noc(CN3C[C@@H]4C[C@H]3CN4)n2)cc2c1C(=O)N([C@@H](C)c1ccc(Cl)cc1)C2 [Example 7, 2-[(S)-1-(4-Chloro-phenyl)-ethyl]-5-{5-[(1S,4S)-1-(2,5-diaza-bicyclo[2.2.1]hept-2-yl)methyl]-[1,2,4]oxadiazol-3-yl}-7-methyl-2,3-dihydro-isoindol-1-one] | 12
Cc1cc(-c2noc(CN3CCNC[C@H]3C)n2)cc2c1C(=O)N(Cc1ccc(Cl)cc1)C2 [Example 8, 2-(4-chloro-benzyl)-7-methyl-5-[5-(2-methyl-piperazin-1-ylmethyl)-[1,2,4]oxadiazol-3-yl]-2,3-dihydroisoindol-1-one] | 11
Cc1cc(-c2noc(CN3CCNC[C@@H]3C)n2)cc2c1C(=O)N(Cc1ccc(Cl)cc1)C2 [Example 9, 2-(4-chloro-benzyl)-7-methyl-5-[5-(2-methyl-piperazin-1-ylmethyl)-[1,2,4]oxadiazol-3-yl]-2,3-dihydroisoindol-1-one] | 11
Cc1cc(-c2noc(CN3CCNC(C)C3)n2)cc2c1C(=O)N(Cc1ccc(Cl)cc1)C2 (centres unmarked) [Example 10, 2-(4-chloro-benzyl)-7-methyl-5-[5-(3-methyl-piperazin-1-ylmethyl)-[1,2,4]oxadiazol-3-yl]-2,3-dihydroisoindol-1-one] | 11
CC1(C)CN(Cc2nc(-c3cc(Cl)c4c(c3)CN(Cc3ccc(OC(F)(F)F)cc3)C4=O)no2)CCN1 [Example 11, 7-chloro-5-[5-(3,3-dimethyl-piperazin-1-ylmethyl)-[1,2,4]oxadiazol-3-yl]-2-(4-trifluoromethoxy-benzyl)-2,3-dihydroisoindol-1-one] | 13
Cc1cc(-c2noc(C(C)N3CCNCC3)n2)cc2c1C(=O)N(Cc1ccc(OC(F)(F)F)cc1)C2 (centres unmarked) [Example 12, 7-Methyl-5-[5-(1-piperazin-1-yl-ethyl)-[1,2,4]oxadiazol-3-yl]-2-(4-trifluoromethoxy-benzyl)-2,3-dihydro-isoindol-1-one] | 17
Cc1cc(-c2noc(C(C)N3CCNCC3)n2)cc2c1C(=O)N(Cc1ccc(Cl)cc1)C2 (centres unmarked) [Example 13, 2-(4-Chloro-benzyl)-7-methyl-5-[5-(1-piperazin-1-yl-ethyl)-[1,2,4]oxadiazol-3-yl]-2,3-dihydro-isoindol-1-one] | 13
Cc1cc(-c2noc(C(C)N3CCNCC3)n2)cc2c1C(=O)N([C@@H](C)c1ccc(Cl)cc1)C2 (stereo partly drawn) [Example 14, 2-[(S)-1-(4-Chloro-phenyl)-ethyl]-7-methyl-5-[5-(1-piperazin-1-yl-ethyl)-[1,2,4]oxadiazol-3-yl]-2,3-dihydro-isoindol-1-one] | 11
